From patent US20260174747A1, “COMPUTER IMPLEMENTED METHODS OF GENERATING DOSE RECOMMENDATIONS” (National University of Singapore, priority 2022, published 2026)

Assay: Retrospective analysis of tacrolimus trough levels (TTL) under SOC dosing, 30 days after pediatric liver transplantation
Assay type: in vivo, pediatric liver transplant patients
Procedure: CURATE.AI requires two components to be supplied into the platform as inputs: the administered tacrolimus dose in mg (dose) and the corresponding TTL in ng/ml (response) to generate a personalized profile for each patient. […] The response input was the corresponding TTL response measured the next day, right before the morning dose. Days with two measurements of TTL (taken in the morning and evening) instead of one, which is the standard frequency, were excluded. TTL measurements <2 ng/ml were assessed to be inaccurate as the measurement equipment was unable to provide resolution for TTL<2 ng/ml, and were thus excluded. All measurements in the records were only taken once each. Doses recorded from day 30 post-transplant onwards were not included as part of this study since it is during the initial post-transplant period that fluctuations in TTL are common; thereby requiring frequent adjustments in drug dosing. […] Doses recorded from the day of discharge onwards were assessed to be unreliable, as confirmation of the doses administered was not possible, and thus excluded. This study used dose-response pairs over a set of consecutive days for each patient for the analysis by CURATE.AI. Dose ranges were categorized as low (<2 mg), medium (2 mg to <4 mg), and high (≥4 mg).
The normality of the data distribution was tested with the Shapiro-Wilk test. Continuous variables were represented as mean (standard deviation (SD)) or median (interquartile range (IQR)), depending on the normality of the data type. Two-sided Wilcoxon signed-rank test was used to compare the medians of two non-parametric groups. Two-sided paired t-test was used to compare the means of two related parametric groups. The statistical significance was defined as p<0.05. All analyses were performed in Python (version 3.9.13).
The grey region represents the therapeutic range of between and inclusive of 7 and 10 ng/ml. Blue and orange markers represent TTL outside and within the therapeutic range, respectively. […]

days within the therapeutic range (TTL 7 to 10 ng/ml), mean (16 patients, mean (SD)): 42.18 % of days
mean TTL (tacrolimus trough level) (all 16 patients, first 30 days post-transplant, mean (SD)): 8.79 ng/mL
time to first achieve the therapeutic range (TTL 7 to 10 ng/ml), median (median (IQR)): 5.00 days
Compound: C=CC[C@@H]1/C=C(\C)C[C@H](C)C[C@H](OC)[C@H]2O[C@@](O)(C(=O)C(=O)N3CCCC[C@H]3C(=O)O[C@H](/C(C)=C/[C@@H]3CC[C@@H](O)[C@H](OC)C3)[C@H](C)[C@@H](O)CC1=O)[C@H](C)C[C@@H]2OC [tacrolimus]
